IC50 data for 23 molecules are collected here from patent publication US7667052B2 (Eisai R&D Management Co., Ltd., priority 2003, dated 2010).

SMILES strings stand for the structures.

In the first assay the test system is transcription from VEGF promoter. In words: VEGF transcription-suppressing activity, VEGF-PLAP reporter in U251/1-8 cell. To be noted: Homo sapiens, U-251, 18 h, read-out: IC50 values of VEGF transcription-suppressing activity (range given). Type of assay: cell-based. The source says: In order to prepare reporter system reflecting transcription from VEGF promoter, VEGF promoter sequence was cloned, and inserted in secretory alkali phosphatase (PLAP) vector to construct reporter vector.
In order to obtain the promoter region of human VEGF, VEGF genome was cloned from phage library. PCR primers having the sequences described in Sequence Numbers 1 and 2 were designed based on VEGF cDNA (GenBank accession number: X62568) and a fragment having about 340 bp was obtained by carrying out PCR. Human genome phage library (Human genomic library, Clontech Co.) was screened using this as a probe to obtain pUC18-VEGFA containing about 5.4 kb of VEGF 5′ flanking region. The pUC18-VEGFA was cleaved by KpnI/NheI, VEGF promoter region of about 2.3 kb obtained was inserted in the multi cloning site KpnI/NheI of secretory alkali phosphatase (PLAP) vector (Goto et al, Mol. Pharmacol., 49, 860-873, 1996), and thus, VEGF-PLAP vector was constructed.
The above-mentioned VEGF-PLAP vector was introduced in the U251 cell cultured in the DULBECCO-modified eagle medium (DMEM; manufactured by SIGMA Co., Ltd.) containing 10% fetal calf serum, and cultured in the presence of 1 mg/ml G418 (Merck Co.) to establish G418 resistant stable clone (U251/1-8 cell).
It was confirmed that U251/1-8 cell secreted PLAP under low oxygen (2% O2 incubator) in the same manner as in the report (Cell. Mol. Biol. Res. 40, 35-39, 1994) and was a reporter system reflecting the transcription from VEGF promoter. The screening of the compound suppressing VEGF production which was induced by low oxygen stimulation was carried out below using the clone.
In order to remove the influence of alkaline phosphates in serum, U251/1-8 cell was rinsed twice with the adequate amount of PBS (Phosphate buffered saline), diluted in the DMEM medium containing 10% of serum in which alkaline phosphates was inactivated by the treatment of 60° C. for 20 min., and dispensed in 96-well plates by 4×10^4 cells/180 μl.
After culturing at 37° C. overnight in a CO2 incubator (5% CO2), 20 μL of the above-mentioned incubation solution containing the test compound diluted with 3-fold succession was added, and then they were incubated in a low oxygen ([…]) incubator for 18 hours. With respect to the PLAP activity in the culture supernatants, 10 μl of the supernatants was added to 50 μl of 0.28 M Na2CO3—NaHCO3 buffer solution (pH 10.0, 8.0 mM MgSO4), and finally 50 μl of alkaline phosphatase substrate (LUMISTEIN, Genomescience Co.) was added. After reacting for one hour, the alkaline phosphatase activity of the PLAP was measured by detecting the chemical luminescence by a micro plate reader (Perkin-Elmer Co.).
The PLAP activity under usual oxygen was set as 0%, the PLAP activity of cell which was treated under low oxygen was set as 100%, and the concentration suppressing the PLAP activity by 50% was set as the IC50 value of PLAP.
In the case of `CCC(OC)C(C)C1OC1C(O)C(C)/C=C/C=C(\C)C1OC(=O)CC(O)CCC(C)(O)C(OC(C)=O)/C=C/C1C` (stereo not drawn) [B9, (8E,12E,14E)-7-Acetoxy-3,6,17-trihydroxy-21-methoxy-6,10,12,16,20-pentamethyl-18,19-epoxytricosa-8,12,14-trien-11-olide], the IC50 fell in the range of 0.5 to 100 nM.

Staying with this assay, now noted: Homo sapiens, U-251; U251/1-8 cell, PLAP activity, low oxygen 18 hours; read-out: IC50 values of VEGF transcription-suppressing activity (range given).
Regarding `CCC(O)C(C)C(I)C(O)CC(C)/C=C/C=C(\C)C1OC(=O)CC(O)CCC(C)(O)C(OC(C)=O)/C=C/C1C` (stereo not drawn) [B3-1, (8E,12E,14E)-7-Acetoxy-3,6,18,21-tetrahydroxy-19-iodo-6,10,12,16,20-pentamethyltricosa-8,12,14-trien-11-olide], the IC50 lay within 0.5 to 100 nM.
Still for that read-out and setting: in the case of `CCC(O)C(C)C1OC1CC(C)/C=C/C=C(\C)C1OC(=O)CC(O)CCC(C)(O)C(OC(=O)NCCN2CCCCC2)/C=C/C1C` (stereo not drawn) [B63, (8E,12E,14E)-3,6,21-Trihydroxy-6,10,12,16,20-pentamethyl-7-N-(2-(piperidin-1-yl)ethyl)carbamoyloxy-18,19-epoxytricosa-8,12,14-trien-11-olide] it was 0.5 to 100 nM; in that of `CCC(OC(C)=O)C(C)C1OC1CC(C)/C=C/C=C(\C)C1OC(=O)CC(O)CCC(C)(O)C(OC(C)=O)/C=C/C1C` (stereo not drawn) [B20-2, (8E,12E,14E)-7,21-diacetoxy-3,6-dihydroxy-6,10,12,16,20-pentamethyl-18,19-epoxytricosa-8,12,14-trien-11-olide], 0.5 to 100 nM; in that of `CCC(F)C(C)C1OC1CC(C)/C=C/C=C(\C)C1OC(=O)CC(O)CCC(C)(O)C(OC(C)=O)/C=C/C1C` (stereo not drawn) [B18-1, (8E,12E,14E)-7-Acetoxy-21-fluoro-3,6-dihydroxy-6,10,12,16,20-pentamethyl-18,19-epoxytricosa-8,12,14-trien-11-olide], 0.5 to 100 nM.
On the same count and under the same terms, in the case of `CCC(O)C(C)C1OC1CC(C)/C=C/C=C(\C)C1OC(=O)CC(OC(N)=O)CCC(C)(O)C(OC(C)=O)/C=C/C1C` (stereo not drawn) [B35-1, (8E,12E,14E)-7-Acetoxy-3-carbamoyloxy-6,21-dihydroxy-6,10,12,16,20-pentamethyl-18,19-epoxytricosa-8,12,14-trien-11-olide] it was 0.5 to 100 nM.
With `CCC(O)C(C)C1OC1CC(C)/C=C/C=C(\C)C1OC(=O)CC(O)CCC(C)(O)C(OC(=O)NCCCN2CCOCC2)/C=C/C1C` (stereo not drawn) [B60, (8E,12E,14E)-3,6,21-Trihydroxy-6,10,12,16,20-pentamethyl-7-N-(3-(morpholin-4-yl)propyl)carbamoyloxy-18,19-epoxytricosa-8,12,14-trien-11-olide], the concentration for half-maximal inhibition (IC50) fell in the range of 0.5 to 100 nM.
Same read-out and setting: in the case of `CCC(O)C(C)C(O)C(I)CC(C)/C=C/C=C(\C)C1OC(=O)CC(O)CCC(C)(O)C(OC(C)=O)/C=C/C1C` (stereo not drawn) [B3-2, (8E,12E,14E)-7-acetoxy-3,6,19,21-tetrahydroxy-18-iodo-6,10,12,16,20-pentamethyltricosa-8,12,14-trien-11-olide] it was 0.5 to 100 nM; in that of `CCC(O)C(C)C1OC1CC(C)/C=C/C=C(\C)C1OC(=O)CC(O)CCC(C)(O)C(OC(=O)NCCCN(C)C)/C=C/C1C` (stereo not drawn) [B55, (8E,12E,14E)-7-(N-(3-Dimethylamino)propyl)carbamoyloxy-3,6,21-trihydroxy-6,10,12,16,20-pentamethyl-18,19-epoxytricosa-8,12,14-trien-11-olide], 0.5 to 100 nM.
Same read-out and setting: in the case of `CCC(O)C(C)C1OC1CC(C)/C=C/C=C(\C)C1OC(=O)CC(OC(=O)c2ccccc2)CCC(C)(O)C(OC(C)=O)/C=C/C1C` (stereo not drawn) [B30-2, (8E,12E,14E)-7-acetoxy-3-benzoloxy-6,21-dihydroxy-6,10,12,16,20-pentamethyl-18,19-epoxytricosa-8,12,14-trien-11-olide] it was 0.5 to 100 nM; in that of `CCC(O)C(C)C1OC1CC(C)/C=C/C=C(\C)C1OC(=O)CC(O)CCC(C)(OC)C(OC(C)=O)/C=C/C1C` (stereo not drawn) [B8-5, (8E,12E,14E)-7-acetoxy-3,21-dihydroxy-6-methoxy-6,10,12,16,20-pentamethyl-18,19-epoxytricosa-8,12,14-trien-11-olide], 0.5 to 100 nM; in that of `CCC(OS(=O)(=O)c1ccc(C)cc1)C(C)C1OC1CC(C)/C=C/C=C(\C)C1OC(=O)CC(O)CCC(C)(O)C(OC(C)=O)/C=C/C1C` (stereo not drawn) [B17, (8E,12E,14E)-7-Acetoxy-3,6-dihydroxy-21-(toluene-4-sulfonyloxy)-6,10,12,16,20-pentamethyl-18,19-epoxytricosa-8,12,14-trien-11-olide], 0.5 to 100 nM.
Same read-out and setting: the value for `CCC(O)C(C)C(O)C(Cl)CC(C)/C=C/C=C(\C)C1OC(=O)CC(O)CCC(C)(O)C(OC(C)=O)/C=C/C1C` (stereo not drawn) [B1-2, (8E,12E,14E)-7-acetoxy-18-chloro-3,6,19,21-tetrahydroxy-6,10,12,16,20-pentamethyltricosa-8,12,14-trien-11-olide] was 0.5 to 100 nM; that for `CCC(O)C(C)C1OC1CC(C)/C=C/C=C(\C)C1OC(=O)CC(OC)CCC(C)(O)C(OC(C)=O)/C=C/C1C` (stereo not drawn) [B8-4, (8E,12E,14E)-7-acetoxy-6,21-dihydroxy-3-methoxy-6,10,12,16,20-pentamethyl-18,19-epoxytricosa-8,12,14-trien-11-olide] was 0.5 to 100 nM.
In the case of `CCCC(=O)OC1/C=C/C(C)C(/C(C)=C/C=C/C(C)CC2OC2C(C)C(O)CC)OC(=O)CC(O)CCC1(C)O` (stereo not drawn) [B42], the half-inhibitory concentration (IC50) lay in the range of 0.5 to 100 nM.
On the same count and under the same terms, in the case of `CCC(O)C(C)C1OC1CC(C)/C=C/C=C(\C)C1OC(=O)CC(O)CCC(C)(O)C(OC(=O)N2CCN(CCO)CC2)/C=C/C1C` (stereo not drawn) [B66, (8E,12E,14E)-3,6,21-Trihydroxy-6,10,12,16,20-pentamethyl-7-((4-(2-hydroxyethyl)piperazin-1-yl)carbonyl)oxy-18,19-epoxytricosa-8,12,14-trien-11-olide] it was 0.5 to 100 nM; in that of `CCC(OC(N)=O)C(C)C1OC1CC(C)/C=C/C=C(\C)C1OC(=O)CC(O)CCC(C)(O)C(OC(C)=O)/C=C/C1C` (stereo not drawn) [B35-2, (8E,12E,14E)-7-acetoxy-21-carbamoyloxy-3,6-dihydroxy-6,10,12,16,20-pentamethyl-18,19-epoxytricosa-8,12,14-trien-11-olide], 0.5 to 100 nM; in that of `CCC(O)C(C)C1OC1CC(C)/C=C/C=C(\C)C1OC(=O)CC(O)CCC(C)(O)C(OC(=O)N2CCCNCC2)/C=C/C1C` (stereo not drawn) [B61, (8E,12E,14E)-3,6,21-Trihydroxy-6,10,12,16,20-pentamethyl-7-((homopiperazin-1-yl)carbonyl)oxy-18,19-epoxytricosa-8,12,14-trien-11-olide], 0.5 to 100 nM.
The same measure, in the same setting: in the case of `CCOCC(=O)OCC(=O)OC1CCC(C)(O)C(OC(C)=O)/C=C/C(C)C(/C(C)=C/C=C/C(C)CC2OC2C(C)C(O)CC)OC(=O)C1` (stereo not drawn) [B26] it was 0.5 to 100 nM; in that of `CCC(O)C(C)C1OC1CC(C)/C=C/C=C(\C)C1OC(=O)CC(O)CCC(C)(O)C(OC(=O)NCc2ccncc2)/C=C/C1C` (stereo not drawn) [B58, (8E,12E,14E)-3,6,21-Trihydroxy-6,10,12,16,20-pentamethyl-7-N-(4-pyridylmethyl)carbamoyloxy-18,19-epoxytricosa-8,12,14-trien-11-olide], 0.5 to 100 nM.
Still for that read-out and setting: the value for `CCC(O)C(C)C1OC1CC(C)/C=C/C=C(\C)C1OC(=O)CC(O)CCC(C)(O)C(OC(=O)N2CC(C)NC(C)C2)/C=C/C1C` (stereo not drawn) [B81, (8E,12E,14E)-3,6,21-Trihydroxy-6,10,12,16,20-pentamethyl-7-((3,5-dimethylpiperazin-1-yl)carbonyl)oxy-18,19-epoxytricosa-8,12,14-trien-11-olide] was 0.5 to 100 nM; that for `CCC(O)C(C)C1OC1CC(C)/C=C/C=C(\C)C1OC(=O)/C=C\CCC(C)(O)C(OC(C)=O)/C=C/C1C` (stereo not drawn) [B43-2, (2Z,8E,12E,14E)-7-acetoxy-6,21-dihydroxy-6,10,12,16,20-pentamethyl-18,19-epoxytricosa-2,8,12,14-tetraen-11-olide] was 0.5 to 100 nM.
With `CCC(O)C(C)C1OC1CC(C)/C=C/C=C(\C)C1OC(=O)CC(O)CCC(C)(O)C(OC(=O)NC(=O)CCl)/C=C/C1C` (stereo not drawn) [B69, (8E,12E,14E)-7-(N-Chloroacetyl)carbamoyloxy-3,6,21-trihydroxy-6,10,12,16,20-pentamethyl-18,19-epoxytricosa-8,12,14-trien-11-olide], the 50% inhibitory concentration (IC50) was 0.5 to 100 nM.

The assay is the same for the next values; noted with them: Homo sapiens, U-251; U251/1-8 cell, PLAP activity, low oxygen 18 hours; read-out: VEGF transcription suppressing activity (IC50: nM).
Consider `CCC(OC(C)=O)C(C)C1OC1CC(C)/C=C/C=C(\C)C1OC(=O)CC(O)CCC(C)(O)C(OC(C)=O)/C=C/C1C` (stereo not drawn) [B20-2, (8E,12E,14E)-7,21-diacetoxy-3,6-dihydroxy-6,10,12,16,20-pentamethyl-18,19-epoxytricosa-8,12,14-trien-11-olide], for which the IC50 is 1.6 nM.
